Measurements reported in ChEMBL document CHEMBL4507268 (2021).

Columns and labels:
Details in all cases: Compound concentration 1.0 uM
[1] = target: Mitogen-activated protein kinase kinase kinase kinase 4 (Homo sapiens) (UniProt O95819)
[2] = target: RAF proto-oncogene serine/threonine-protein kinase (Homo sapiens) (UniProt P04049)
[3] = target: Vascular endothelial growth factor receptor 3 (Homo sapiens) (UniProt P35916)
[4] = target: T1, Ephrin type-B receptor 2 (Homo sapiens) (UniProt P29323)
T1 sequence (whole entry): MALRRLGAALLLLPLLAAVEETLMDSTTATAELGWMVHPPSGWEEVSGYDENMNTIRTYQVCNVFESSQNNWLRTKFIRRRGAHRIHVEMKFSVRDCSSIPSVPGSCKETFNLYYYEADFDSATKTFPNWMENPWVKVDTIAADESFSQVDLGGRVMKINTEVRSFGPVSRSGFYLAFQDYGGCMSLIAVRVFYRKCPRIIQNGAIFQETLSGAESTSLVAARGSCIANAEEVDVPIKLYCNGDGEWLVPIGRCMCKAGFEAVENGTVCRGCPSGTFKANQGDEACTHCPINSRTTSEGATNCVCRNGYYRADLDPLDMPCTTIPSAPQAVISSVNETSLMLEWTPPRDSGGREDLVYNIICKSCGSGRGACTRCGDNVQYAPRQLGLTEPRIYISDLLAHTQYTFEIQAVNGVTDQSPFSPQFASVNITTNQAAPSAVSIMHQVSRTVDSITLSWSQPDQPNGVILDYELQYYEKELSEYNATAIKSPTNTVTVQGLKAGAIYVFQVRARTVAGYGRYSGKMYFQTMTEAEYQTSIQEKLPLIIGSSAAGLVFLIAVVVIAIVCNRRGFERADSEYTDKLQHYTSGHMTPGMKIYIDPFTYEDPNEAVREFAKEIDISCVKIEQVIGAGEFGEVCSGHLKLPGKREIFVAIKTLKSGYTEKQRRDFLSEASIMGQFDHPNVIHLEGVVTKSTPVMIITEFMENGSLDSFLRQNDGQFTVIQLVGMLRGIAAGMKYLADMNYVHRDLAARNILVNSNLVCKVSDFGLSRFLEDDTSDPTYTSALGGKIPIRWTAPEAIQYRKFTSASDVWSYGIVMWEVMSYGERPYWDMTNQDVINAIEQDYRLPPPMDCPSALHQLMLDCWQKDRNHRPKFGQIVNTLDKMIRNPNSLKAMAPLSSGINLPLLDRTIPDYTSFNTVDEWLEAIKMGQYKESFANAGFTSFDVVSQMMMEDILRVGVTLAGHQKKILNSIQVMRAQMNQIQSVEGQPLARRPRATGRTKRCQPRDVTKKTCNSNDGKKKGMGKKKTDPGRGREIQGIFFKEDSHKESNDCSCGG

[5] = target: T2, Mitogen-activated protein kinase kinase kinase kinase 3 (Homo sapiens) (UniProt Q8IVH8)
T2 sequence (whole entry): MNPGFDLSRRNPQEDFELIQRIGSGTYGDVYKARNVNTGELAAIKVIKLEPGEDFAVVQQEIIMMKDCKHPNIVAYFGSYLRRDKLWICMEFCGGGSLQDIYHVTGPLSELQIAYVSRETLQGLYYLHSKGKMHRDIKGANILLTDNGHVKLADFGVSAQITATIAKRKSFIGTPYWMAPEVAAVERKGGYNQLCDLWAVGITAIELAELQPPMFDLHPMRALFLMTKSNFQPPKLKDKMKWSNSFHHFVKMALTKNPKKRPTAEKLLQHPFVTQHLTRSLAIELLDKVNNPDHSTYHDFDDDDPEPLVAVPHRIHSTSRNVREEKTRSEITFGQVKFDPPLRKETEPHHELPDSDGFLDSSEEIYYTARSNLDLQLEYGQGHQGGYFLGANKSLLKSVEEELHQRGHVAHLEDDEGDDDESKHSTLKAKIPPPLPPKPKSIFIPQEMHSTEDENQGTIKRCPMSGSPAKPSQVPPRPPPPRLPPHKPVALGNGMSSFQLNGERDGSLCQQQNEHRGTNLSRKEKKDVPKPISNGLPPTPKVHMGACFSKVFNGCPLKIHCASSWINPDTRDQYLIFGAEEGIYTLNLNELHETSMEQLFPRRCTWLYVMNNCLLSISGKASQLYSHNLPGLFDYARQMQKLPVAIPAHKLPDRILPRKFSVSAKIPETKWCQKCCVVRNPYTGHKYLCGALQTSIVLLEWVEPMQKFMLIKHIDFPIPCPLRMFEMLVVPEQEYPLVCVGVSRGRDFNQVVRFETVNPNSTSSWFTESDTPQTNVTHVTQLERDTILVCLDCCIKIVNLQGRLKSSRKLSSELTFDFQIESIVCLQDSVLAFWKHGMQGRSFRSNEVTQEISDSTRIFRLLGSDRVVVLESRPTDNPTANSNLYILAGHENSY

[6] = target: T3, Serine/threonine-protein kinase BRSK2 (Homo sapiens) (UniProt Q8IWQ3)
T3 sequence (whole entry): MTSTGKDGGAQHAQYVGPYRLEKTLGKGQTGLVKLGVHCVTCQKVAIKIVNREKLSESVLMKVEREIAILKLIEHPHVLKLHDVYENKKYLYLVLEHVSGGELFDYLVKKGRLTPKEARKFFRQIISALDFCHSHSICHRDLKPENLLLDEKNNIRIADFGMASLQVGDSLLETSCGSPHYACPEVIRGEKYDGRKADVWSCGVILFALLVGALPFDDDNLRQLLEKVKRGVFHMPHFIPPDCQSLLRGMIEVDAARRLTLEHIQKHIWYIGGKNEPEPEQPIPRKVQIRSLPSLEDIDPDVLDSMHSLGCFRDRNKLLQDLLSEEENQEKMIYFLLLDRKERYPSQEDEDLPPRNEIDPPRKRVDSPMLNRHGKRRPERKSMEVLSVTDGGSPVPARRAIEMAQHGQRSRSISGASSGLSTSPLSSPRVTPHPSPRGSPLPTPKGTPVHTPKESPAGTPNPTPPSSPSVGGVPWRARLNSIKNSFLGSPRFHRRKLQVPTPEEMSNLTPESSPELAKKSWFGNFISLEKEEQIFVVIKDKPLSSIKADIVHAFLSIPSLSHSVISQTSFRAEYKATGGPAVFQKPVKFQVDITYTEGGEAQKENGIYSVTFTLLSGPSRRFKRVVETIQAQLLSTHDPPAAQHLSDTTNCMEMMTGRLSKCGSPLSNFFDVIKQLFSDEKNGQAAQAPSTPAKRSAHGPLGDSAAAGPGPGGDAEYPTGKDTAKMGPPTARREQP

[7] = target: Tribbles homolog 2 (Homo sapiens) (UniProt Q92519)
Chain of Tribbles homolog 2 (Homo sapiens) (Q92519 whole entry): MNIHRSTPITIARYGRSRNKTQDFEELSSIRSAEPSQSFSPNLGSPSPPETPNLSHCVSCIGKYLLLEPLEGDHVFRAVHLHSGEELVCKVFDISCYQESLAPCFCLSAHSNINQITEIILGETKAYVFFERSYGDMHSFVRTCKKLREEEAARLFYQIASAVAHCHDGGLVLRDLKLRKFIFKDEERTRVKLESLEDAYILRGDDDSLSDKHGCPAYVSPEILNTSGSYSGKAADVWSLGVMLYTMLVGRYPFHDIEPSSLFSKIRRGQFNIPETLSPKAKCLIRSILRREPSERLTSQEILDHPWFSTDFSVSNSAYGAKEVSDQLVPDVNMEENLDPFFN

Measured: % residual kinase activity

Chain of Vascular endothelial growth factor receptor 3 (Homo sapiens) (P35916 whole entry): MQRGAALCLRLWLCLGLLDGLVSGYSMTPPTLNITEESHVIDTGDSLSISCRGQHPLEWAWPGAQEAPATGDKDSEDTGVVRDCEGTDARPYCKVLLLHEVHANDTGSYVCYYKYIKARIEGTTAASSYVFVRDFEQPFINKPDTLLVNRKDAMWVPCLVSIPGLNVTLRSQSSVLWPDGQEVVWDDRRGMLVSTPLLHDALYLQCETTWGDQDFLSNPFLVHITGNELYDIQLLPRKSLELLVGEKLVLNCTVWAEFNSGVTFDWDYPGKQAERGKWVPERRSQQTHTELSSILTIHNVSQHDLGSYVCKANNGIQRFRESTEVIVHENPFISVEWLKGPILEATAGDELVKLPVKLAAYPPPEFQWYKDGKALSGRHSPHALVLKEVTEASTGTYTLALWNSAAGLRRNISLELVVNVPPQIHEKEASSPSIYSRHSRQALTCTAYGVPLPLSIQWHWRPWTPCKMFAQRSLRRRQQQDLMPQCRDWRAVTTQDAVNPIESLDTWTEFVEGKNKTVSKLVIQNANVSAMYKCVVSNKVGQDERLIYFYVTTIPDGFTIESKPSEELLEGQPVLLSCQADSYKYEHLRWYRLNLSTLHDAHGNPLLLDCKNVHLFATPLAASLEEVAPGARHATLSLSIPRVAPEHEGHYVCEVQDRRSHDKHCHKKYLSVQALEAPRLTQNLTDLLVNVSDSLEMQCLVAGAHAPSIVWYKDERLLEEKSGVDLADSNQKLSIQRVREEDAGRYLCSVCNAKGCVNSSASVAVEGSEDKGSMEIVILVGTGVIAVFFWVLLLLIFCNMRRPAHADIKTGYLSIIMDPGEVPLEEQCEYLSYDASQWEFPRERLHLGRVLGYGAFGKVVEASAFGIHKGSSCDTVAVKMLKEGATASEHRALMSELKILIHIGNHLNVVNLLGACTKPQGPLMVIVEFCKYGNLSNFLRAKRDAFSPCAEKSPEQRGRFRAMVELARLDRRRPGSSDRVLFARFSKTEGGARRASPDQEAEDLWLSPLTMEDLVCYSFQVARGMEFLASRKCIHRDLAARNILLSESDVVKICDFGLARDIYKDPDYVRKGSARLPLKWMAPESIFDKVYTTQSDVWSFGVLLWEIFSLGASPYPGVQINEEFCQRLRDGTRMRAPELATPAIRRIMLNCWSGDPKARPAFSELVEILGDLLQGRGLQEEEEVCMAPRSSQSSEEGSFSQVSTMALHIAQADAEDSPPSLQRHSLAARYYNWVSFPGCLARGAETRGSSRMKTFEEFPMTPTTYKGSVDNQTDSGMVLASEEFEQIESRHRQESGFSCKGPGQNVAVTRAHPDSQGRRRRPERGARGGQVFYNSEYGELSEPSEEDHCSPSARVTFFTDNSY
Chain of RAF proto-oncogene serine/threonine-protein kinase (Homo sapiens) (P04049 whole entry): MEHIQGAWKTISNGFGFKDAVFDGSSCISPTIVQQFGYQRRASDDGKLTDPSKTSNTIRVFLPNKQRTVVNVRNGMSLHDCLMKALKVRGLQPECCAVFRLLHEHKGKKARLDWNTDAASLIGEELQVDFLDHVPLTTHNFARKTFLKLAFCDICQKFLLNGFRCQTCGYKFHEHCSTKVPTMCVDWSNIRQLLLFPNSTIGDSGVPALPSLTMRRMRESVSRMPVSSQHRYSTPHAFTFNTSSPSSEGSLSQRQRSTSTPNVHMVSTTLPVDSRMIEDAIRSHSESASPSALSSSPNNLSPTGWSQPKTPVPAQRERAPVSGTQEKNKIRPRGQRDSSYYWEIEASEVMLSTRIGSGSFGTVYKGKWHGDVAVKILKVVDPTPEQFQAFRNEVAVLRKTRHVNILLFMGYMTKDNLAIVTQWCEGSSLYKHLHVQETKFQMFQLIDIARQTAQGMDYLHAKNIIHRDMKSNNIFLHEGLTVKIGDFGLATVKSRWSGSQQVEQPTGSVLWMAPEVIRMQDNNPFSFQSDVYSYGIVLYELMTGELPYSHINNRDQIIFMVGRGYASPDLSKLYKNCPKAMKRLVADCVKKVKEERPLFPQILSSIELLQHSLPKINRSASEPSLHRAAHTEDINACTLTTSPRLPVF
Chain of Mitogen-activated protein kinase kinase kinase kinase 4 (Homo sapiens) (O95819 2-1239 limits assumed): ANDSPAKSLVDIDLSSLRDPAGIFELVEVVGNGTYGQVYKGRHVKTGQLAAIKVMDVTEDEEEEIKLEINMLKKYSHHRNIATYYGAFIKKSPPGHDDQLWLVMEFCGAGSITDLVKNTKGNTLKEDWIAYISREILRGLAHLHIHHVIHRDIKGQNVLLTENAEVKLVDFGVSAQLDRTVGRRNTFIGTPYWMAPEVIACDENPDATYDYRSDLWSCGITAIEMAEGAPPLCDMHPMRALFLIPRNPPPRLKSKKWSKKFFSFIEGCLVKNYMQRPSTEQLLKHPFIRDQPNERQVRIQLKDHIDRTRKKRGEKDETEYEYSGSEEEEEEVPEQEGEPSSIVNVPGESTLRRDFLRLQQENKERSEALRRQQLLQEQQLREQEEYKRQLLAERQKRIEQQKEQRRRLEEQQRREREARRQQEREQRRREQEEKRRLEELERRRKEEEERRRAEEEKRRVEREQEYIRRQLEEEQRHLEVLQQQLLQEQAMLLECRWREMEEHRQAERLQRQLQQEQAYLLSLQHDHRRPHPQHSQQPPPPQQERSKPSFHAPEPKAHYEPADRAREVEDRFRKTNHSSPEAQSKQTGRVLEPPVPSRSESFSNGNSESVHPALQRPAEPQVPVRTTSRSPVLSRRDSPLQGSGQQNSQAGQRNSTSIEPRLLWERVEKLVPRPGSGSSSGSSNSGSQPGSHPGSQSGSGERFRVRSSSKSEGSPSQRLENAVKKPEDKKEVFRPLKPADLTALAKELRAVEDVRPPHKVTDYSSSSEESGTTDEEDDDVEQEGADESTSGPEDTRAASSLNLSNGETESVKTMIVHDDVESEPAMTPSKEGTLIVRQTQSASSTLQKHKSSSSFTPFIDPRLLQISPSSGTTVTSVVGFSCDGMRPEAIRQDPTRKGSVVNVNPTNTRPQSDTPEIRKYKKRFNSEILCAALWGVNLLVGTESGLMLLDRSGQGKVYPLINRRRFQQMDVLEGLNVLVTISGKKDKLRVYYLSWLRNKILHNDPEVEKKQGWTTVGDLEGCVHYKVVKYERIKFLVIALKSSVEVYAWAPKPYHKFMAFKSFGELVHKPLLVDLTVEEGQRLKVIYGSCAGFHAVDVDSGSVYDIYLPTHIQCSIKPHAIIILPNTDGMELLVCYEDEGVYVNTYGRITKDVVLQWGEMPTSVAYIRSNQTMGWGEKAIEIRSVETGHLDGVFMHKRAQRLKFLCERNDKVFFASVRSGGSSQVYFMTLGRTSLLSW

CN1CCN(c2cnc3c(C4CCN(C(=O)c5ccc(OC(F)(F)F)cc5N)CC4)ncnc3c2)CC1 [BAY-885]
inactive: [1] 99% | [2] 107% | [3] 98% | [4] 93% | [5] 102% | [6] 102% | [7] 109%
